Laboratory results reported in article PMC12131314, “Design, synthesis and cytotoxic research of a novel antitumor model based on acrylamide–PABA analogs via β-tubulin inhibition” (RSC Advances, 2025).

How the values were obtained:
Format in all cases: cell-based
[1] = tested on: MCF-7 breast cancer cell line; experiment: MTT cytotoxicity assay, MCF-7 breast cancer cell line; conditions: for IC50: MCF-7 breast carcinoma cells, triplicate
Description: The MTT colorimetric technique was used to evaluate the cytotoxic activity of the newly produced acrylamide–PABA hybrids 4a–j against the MCF-7 breast cancer cell line.
(§1) S4.2.1. Cytotoxic activity evaluation
(§2) To measure the cytotoxic actvity of the synthesized acrylamide-PABA derivatives 4a-j in breast MCF-7 (ATCC Cat. No. HTB-22), liver HepG2 (ATCC Cat No. HB-8065), and normal breast MCF-10A (ATCC Cat. No. CRL 10317) cell lines, cell viability assay was assessed using MTT assay method. Cells at density of 1 x 104 were seeded in a 96-well plate at 37 °C for 24 h under 5% CO2. After incubation, the cells were treated with different concentrations of the test acrylamide-PABA hybrids 4a-j and incubated for 24 h, then 20 µl of MTT solution at 5 mg/mL was applied and incubated for 4 h at 37 °C. Dimethyl sulphoxide (DMSO) in volume of 100 µl was added to each well to dissolve the purple formazan that had formed. The color intensity of the formazan product, which represents the growth condition of the cells, is quantified by using an ELISA plate reader (EXL 800, USA) at 570 nm absorbance. The experimental conditions were carried out with at least three replicates, and the experiments were repeated at least three times. […]

[2] = tested on: HepG2 hepatocellular carcinoma cell line; experiment: MTT cytotoxicity assay, HepG2 hepatocellular carcinoma cell line; conditions: Homo sapiens, HepG2 cells, triplicate
Description: as §1, §2

β-tubulin = β-tubulin polymerization inhibition (β-tubulin assay kit) in MCF-7 cells
Description: as §1
To measure the cytotoxic actvity of the synthesized acrylamide-PABA derivatives 4a-j in breast MCF-7 (ATCC Cat. No. HTB-22), liver HepG2 (ATCC Cat No. HB-8065), and normal breast MCF-10A (ATCC Cat. No. CRL 10317) cell lines, cell viability assay was assessed using MTT assay method. Cells at density of 1 x 104 were seeded in a 96-well plate at 37 °C for 24 h under 5% CO2. After incubation, the cells were treated with different concentrations of the test acrylamide-PABA hybrids 4a-j and incubated for 24 h, then 20 µl of MTT solution at 5 mg/mL was applied and incubated for 4 h at 37 °C. Dimethyl sulphoxide (DMSO) in volume of 100 µl was added to each well to dissolve the purple formazan that had formed. The color intensity of the formazan product, which represents the growth condition of the cells, is quantified by using an ELISA plate reader (EXL 800, USA) at 570 nm absorbance. The experimental conditions were carried out with at least three replicates, and the experiments were repeated at least three times.
S4.2.2. β-tubulin inhibition Assay […]
according to manufacturer’s instructions

[3] = tested on: MCF-10A (normal breast) cell line; experiment: MTT cytotoxicity assay, MCF-10A normal breast cell line; conditions: Homo sapiens, MCF-10A normal breast cells, triplicate
Description: as §1, §2

Bax = experiment: qRT-PCR expression level of Bax; conditions: MCF-7 cells
Excerpt: (§3) The apoptotic markers related to apoptosis were crucial in preventing cancer.[30] p53 and other apoptotic regulators function as transcription factors that can activate several target genes in response to oncogenic stress, causing cell cycle arrest, apoptosis activation, and degeneration, while also promoting DNA repairs.[31] As a result, the apoptosis-related markers work together in order to ensure that cells with mutations that promote cancer (including broken genomes) are either repaired or permanently eliminated.[32] To further comprehend the molecular process involved in the apoptotic efficacy of the acrylamide–PABA analogs, the expression levels of p53, Bax, Bcl-2 and caspase 9 were evaluated. […] This was carried out in contrast to a negative control group. […] This was accompanied by a notable drop in the level of Bcl-2 (0.29-fold). […]
(§4) S4.2.4. qRT-PCR measurements of p53, Bax, Bcl2 and caspase 9 for compound […]
(§5) Real-time PCR for p53, BAX, Bcl-2 and caspase 9 genes expression was done using commercial Qiagen RNA extraction/ BioRad SYBER green PCR master mix according manufacturer's instructions. […]
(§6) Relative quantification of target genes was run on Rotor-Gene 6000 Series Software

MCF-7 cells [4] = experiment: Annexin V-FITC/PI apoptosis assay by flow cytometry; conditions: 4j at the IC50, 48 h
Description: Understanding the biological mechanism of action of chemotherapeutic agents is an important aspect of the pharmaceutical development process.[28] […] Following cellular staining with Annexin V –FITC/propidium iodide (PI), FACS analysis was conducted. To differentiate between early and late apoptosis, both stains were used. (PI^−/Annexin V-FITC^+) represented early apoptotic cells, (PI^+/Annexin V-FITC^+) indicated late apoptotic cells, and (PI^+/Annexin V-FITC^−) represented necrotic cells. However, healthy cells were not stained (PI^−/Annexin V-FITC^−). […] This was clarified by compound 4j's modest degree of induced necrosis in contrast to its markedly elevated levels of induced early and late apoptosis. Acrylamide–PABA analog 4j induced both early apoptosis (22.07%) and late apoptosis (7.56%) in comparison with modest level of necrosis (3.19%).
S4.2.3. Apoptosis assay for compound 4j
Apoptosis in MCF-7 cells was investigated using fluorescent Annexin V-FITC/ PI detection kit (BioVision Annexin V-FITC Apoptosis Detection Kit, Catalog #: K101) by flow cytometry assay. MCF-7 cells at a density of 2 × 10^5 per well were treated with compound 4j at the IC50 (µM) for 48 h, then the cells were harvested and stained with Annexin V-FITC/ PI dye for 15 min in the dark at 37 °C. The samples were immediately analyzed using FACS Calibur flow cytometer (Becton and Dickinson, […]
as §4
Real-time PCR for p53, BAX, Bcl-2 and caspase 9 genes expression was done using commercial Qiagen RNA extraction/ BioRad SYBER green PCR master mix according manufacturer's instructions. Briefly, 2 µl of cDNA template, 10 pMol of each forward and reverse primer, 10 µl of 2X Master Mix and to 20 µl total reaction mixture volume by nuclease free water and then was introduced to thermal cycler […]
(1 picture or pasted object on this page, not shown here)

Bcl-2 = experiment: qRT-PCR expression level of Bcl-2; conditions: MCF-7 cells
Excerpt: as §3, §4, §5, §6

p53 = experiment: qRT-PCR expression level of p53; conditions: MCF-7 cells
Excerpt: as §3, §4, §5, §6

MCF-7 cells [5] = experiment: Cell cycle analysis (PI, flow cytometry); conditions: 4j at the IC50, 48 h
Excerpt: In cancer mass development, the disruption of the cell cycle can be an important event. Cellular cycle progression has two primary checkpoints: G1/S before DNA replication and G2/M before mitosis.[33] A p53-responsive gene such as p21^wafi regulates the G1/S checkpoint and mediates cell cycle arrest.[34] Since the cytotoxic activity of the synthesized analogs against MCF-7 cells was induced by the enhanced apoptotic levels, we examined whether these analogs further induced cell cycle arrest. […] As can been seen in Fig. 5, the cellular distribution at each stage is depicted in the histogram of the cellular cycle caused by the acrylamide–PABA hybrid 4j. […]
instrument (Thermo Scientific, USA). The cycling parameters for the PCR amplification were achieved by initial denaturation at 95 °C for 3 minutes followed by 40 cycles of 94 °C for 15 seconds and annealing/extension step at 60 °C for 1 min.
Relative quantification of target genes was run on Rotor-Gene 6000 Series Software […]
Table 1: The primer sequences for Real Time PCR assay
S4.2.5. Cell cycle analysis of compound 4j
Cell cycle analysis in MCF-7 cells was investigated using fluorescent Annexin V-FITC/ PI detection kit (BioVision EZCellTM Cell Cycle Analysis Kit Catalog #K920) by flow cytometry assay. MCF-7 cells at a density of 2 × 10^5 per well were harvested and washed twice in PBS. After that, the cells were incubated at 37 °C and 5% CO2.
The medium was incubated with the tested compound 4j at the IC50 (µM) for 48 h, washed twice in PBS, fixed with 70% ethanol, rinsed again with PBS. Afterward, medium was stained with DNA fluorochrome PI for 15 min at 37 °C. The samples were immediately analyzed using Facs Calibur flow cytometer (Becton and Dickinson, Heidelberg, Germany).
S4.3. Molecular modeling study
Molecular docking simulations were conducted using AutoDock Vina to investigate ligand interactions with the tubulin complex. The three-dimensional (3D) structure of the tubulin heterodimer was obtained from the Protein Data Bank (PDB ID: 1SA0), with chain B of the colchicine-bound complex selected as the docking target. […]

caspase 9 = experiment: qRT-PCR expression level of caspase 9; conditions: MCF-7 cells
Excerpt: as §3, §4, §5, §6

Question: `COc1cc(C(=O)N/C(=C\c2ccc(Cl)cc2)C(=O)NNC(=O)c2ccc(N)cc2)cc(OC)c1OC` [4b, (Z)-N-(3-(2-(4-Aminobenzoyl)hydrazineyl)-1-(4-chlorophenyl)-3-oxoprop-1-en-2-yl)-3,4,5-trimethoxybenzamide] was tested. Which IC50 ([1]; Homo sapiens, MCF7, MTT) did it give?
Answer: 25.3 ± 0.86 µM

Question: With `COc1cc(C(=O)N/C(=C\c2ccc(F)cc2)C(=O)NNC(=O)c2ccc(N)cc2)cc(OC)c1OC` [4a, (Z)-N-(3-(2-(4-Aminobenzoyl)hydrazineyl)-1-(4-fluorophenyl)-3-oxoprop-1-en-2-yl)-3,4,5-trimethoxybenzamide] as the compound, how does the IC50 [2] read?
Answer: 4.87 ± 0.13 µM

Question: And the IC50 ([1]; Homo sapiens, MCF7, MTT)?
Answer: 2.99 ± 0.1 µM

Question: And the “percentage inhibition of β-tubulin polymerization” value (β-tubulin)?
Answer: 78.19%

Question: And the IC50 [3]?
Answer: 19.8 ± 0.62 µM

Question: Which IC50 ([1]; Homo sapiens, MCF7, MTT) does the source give for `COc1cc(C(=O)N/C(=C\c2ccc([N+](=O)[O-])cc2)C(=O)NNC(=O)c2ccc(N)cc2)cc(OC)c1OC` [4c, (Z)-N-(3-(2-(4-Aminobenzoyl)hydrazineyl)-1-(4-nitrophenyl)-3-oxoprop-1-en-2-yl)-3,4,5-trimethoxybenzamide] here?
Answer: > 30 µM

Question: And the IC50 ([1]; MTT)?
Answer: 39.7 ± 1.34 µM

Question: `COc1cc(C(=O)N/C(=C\c2ccc(N(C)C)cc2)C(=O)NNC(=O)c2ccc(N)cc2)cc(OC)c1OC` [4f, (Z)-N-(3-(2-(4-Aminobenzoyl)hydrazineyl)-1-(4-(dimethylamino)phenyl)-3-oxoprop-1-en-2-yl)-3,4,5-trimethoxybenzamide] was tested. Which IC50 ([1]; Homo sapiens, MCF7, MTT) did it give?
Answer: 27.2 ± 0.92 µM

Question: Which results are given for `COc1cc(C(=O)N/C(=C\c2ccco2)C(=O)NNC(=O)c2ccc(N)cc2)cc(OC)c1OC` [4j, (Z)-N-(3-(2-(4-Aminobenzoyl)hydrazineyl)-1-(furan-2-yl)-3-oxoprop-1-en-2-yl)-3,4,5-trimethoxybenzamide]?
Answer: expression level of Bax compared to negative controls (Bax): 8.36 fold; IC50 [2]: 2.14 ± 0.09 µM; IC50 ([1]; Homo sapiens, MCF7, MTT): 1.83 ± 0.06 µM; fold more potent than the reference drug Col (MCF-7 IC50) ([1]; MCF-7 cells, relative to Col): 1.9 fold; early apoptosis (MCF-7 cells [4]): 22.07%; late apoptosis (MCF-7 cells [4]): 7.56%; necrosis (MCF-7 cells [4]): 3.19%; level of Bcl-2 compared to negative controls (Bcl-2): 0.29 fold; expression level of p53 compared to negative controls (p53): 5.14 fold; percentage inhibition of β-tubulin polymerization (β-tubulin): 81.51%; IC50 [3]: 23.2 ± 1.06 µM; cell population at S phase (MCF-7 cells [5]; negative control 29.51%): 18.83%; cell population at G1 phase (MCF-7 cells [5]; negative control 61.08%): 46.99%; cell population at G2/M phase (MCF-7 cells [5]; untreated control 9.41%): 34.18%; expression level of caspase 9 compared to negative controls (caspase 9): 9.89 fold

Question: `COc1ccc(/C=C(\NC(=O)c2cc(OC)c(OC)c(OC)c2)C(=O)NNC(=O)c2ccc(N)cc2)cc1OC` [4g, (Z)-N-(3-(2-(4-Aminobenzoyl)hydrazineyl)-1-(3,4-dimethoxyphenyl)-3-oxoprop-1-en-2-yl)-3,4,5-trimethoxybenzamide] was tested. Which IC50 ([1]; Homo sapiens, MCF7, MTT) did it give?
Answer: 17.1 ± 0.58 µM

Question: For `COc1cc(/C=C(\NC(=O)c2cc(OC)c(OC)c(OC)c2)C(=O)NNC(=O)c2ccc(N)cc2)cc(OC)c1OC` [4i, (Z)-N-(3-(2-(4-Aminobenzoyl)hydrazineyl)-3-oxo-1-(3,4,5-trimethoxyphenyl)prop-1-en-2-yl)-3,4,5-trimethoxybenzamide], which IC50 ([1]; Homo sapiens, MCF7, MTT) is on record?
Answer: 4.51 ± 0.15 µM

Question: How did the IC50 ([1]; Homo sapiens, MCF7, MTT) turn out when `COc1cc(C(=O)N/C(=C\c2cc(Br)c(O)c(Br)c2)C(=O)NNC(=O)c2ccc(N)cc2)cc(OC)c1OC` [4h, (Z)-N-(3-(2-(4-Aminobenzoyl)hydrazineyl)-1-(3,5-dibromo-4-hydroxyphenyl)3-oxoprop-1-en-2-yl)-3,4,5-trimethoxybenzamide] was run?
Answer: 19.9 ± 0.67 µM
